Literature values as cited in PubChem BioAssay AID1259409 (Chemical Carcinogenesis Research Information System (CCRIS), 2018).

Tested on: rodent chemically induced tumor inhibition, incidence and multiplicity
Experiment: CCRIS tumor inhibitor studies

For Cc1cc(C(C)(C)C)c(O)c(C(C)(C)C)c1, the “tumour outcome (control, treated, inhibition, significance)” value (Carcinogen: 1,2-DIMETHYLHYDRAZINE DIHYDROCHLORIDE, 306-37-6, Dose [Inhibitor]: 6600 PPM IN DIET FOR 23 WK (STUDY DURATION: 23 WK), Route [Inhibitor]: ORAL, Species: RAT, Strain/Sex: SPRAGUE-DAWLEY MALE, Target Tissue: Type of Lesion: CECUM: TUMOR, Dose [Carcinogen]: 30 MG/KG IN SALINE 1/WK FOR THE FIRST 9 WK OF STUDY (10 DOSES), SIMULTANEOUSLY WITH INHIBITOR, Promoter: NONE USED) is listed as 1/10 (10%), 4/9 (44%), -340%, not calculated, the “tumour outcome (control, treated, inhibition, significance)” value (Carcinogen: 1,2-DIMETHYLHYDRAZINE DIHYDROCHLORIDE, 306-37-6, Dose [Inhibitor]: 6600 PPM IN DIET FOR 23 WK (STUDY DURATION: 23 WK), Route [Inhibitor]: ORAL, Species: RAT, Strain/Sex: SPRAGUE-DAWLEY MALE, Target Tissue: Type of Lesion: COLON: TUMOR, Dose [Carcinogen]: 30 MG/KG IN SALINE 1/WK FOR THE FIRST 9 WK OF STUDY (10 DOSES), SIMULTANEOUSLY WITH INHIBITOR, Promoter: NONE USED) is listed as 10/10 (100%), 9/9 (100%), 0%, not calculated and the “tumour outcome (control, treated, inhibition, significance)” value (Carcinogen: 1,2-DIMETHYLHYDRAZINE DIHYDROCHLORIDE, 306-37-6, Dose [Inhibitor]: 6600 PPM IN DIET FOR 23 WK (STUDY DURATION: 23 WK), Route [Inhibitor]: ORAL, Species: RAT, Strain/Sex: SPRAGUE-DAWLEY MALE, Target Tissue: Type of Lesion: DUODENUM: TUMOR, Dose [Carcinogen]: 30 MG/KG IN SALINE 1/WK FOR THE FIRST 9 WK OF STUDY (10 DOSES), SIMULTANEOUSLY WITH INHIBITOR, Promoter: NONE USED) is listed as 8/10 (80%), 5/9 (56%), 30%, not calculated. The “tumour outcome (control, treated, inhibition, significance)” value (Carcinogen: 1,2-DIMETHYLHYDRAZINE, 540-73-8, Dose [Inhibitor]: 0, 0.5% IN DIET BEGINNING 1 WK POST LAST CARCINOGEN DOSE AND CONTINUING FOR 36 WK (STUDY DURATION: 40 WK), Route [Inhibitor]: ORAL, Species: RAT, Strain/Sex: F344/MALE, Target Tissue: Type of Lesion: COLON: ADENOMA, Dose [Carcinogen]: 20 MG/KG 1/WK FOR 4 WK, Promoter: NONE USED) was 5/18 (28%), 4/19 (21%), 25%, not calculated, the “tumour outcome (control, treated, inhibition, significance)” value (Carcinogen: 1,2-DIMETHYLHYDRAZINE, 540-73-8, Dose [Inhibitor]: 0, 0.5% IN DIET BEGINNING 1 WK POST LAST CARCINOGEN DOSE AND CONTINUING FOR 36 WK (STUDY DURATION: 40 WK), Route [Inhibitor]: ORAL, Species: RAT, Strain/Sex: F344/MALE, Target Tissue: Type of Lesion: COLON: CARCINOMA, Dose [Carcinogen]: 20 MG/KG 1/WK FOR 4 WK, Promoter: NONE USED) was 7/18 (39%), 9/19 (48%), -23%, not calculated and the “tumour outcome (control, treated, inhibition, significance)” value (Carcinogen: 1,2-DIMETHYLHYDRAZINE, 540-73-8, Dose [Inhibitor]: 0, 250 MG/KG BW IN CORN OIL 1/D FOR 2 WK PRIOR TO FIRST CARCINOGEN DOSE THEN 3/WK FOR DURATION OF STUDY (STUDY DURATION:, Route [Inhibitor]: GAVAGE, Species: RAT, Strain/Sex: BD6/MALE, Target Tissue: Type of Lesion: INTESTINE: TUMOR, Dose [Carcinogen]: 20 MG/KG BW 1/WK FOR 20 WK, Promoter: NONE USED) was 100%, 100%, 0%, not significant. For the same molecule, the “tumour outcome (control, treated, inhibition, significance)” value (Carcinogen: 1,2-DIMETHYLHYDRAZINE, 540-73-8, Dose [Inhibitor]: 0.5% IN DIET STARTING 2 WK PRIOR TO CARCINOGEN TREATMENT AND CONTINUING FOR DURATION OF STUDY (STUDY DURATION: 28 WK), Route [Inhibitor]: ORAL, Species: RAT, Strain/Sex: SPRAGUE-DAWLEY/MALE, Target Tissue: Type of Lesion: COLON: ADENOCARCINOMA, Dose [Carcinogen]: 20 MG/KG BW IN BACTERIOSTATIC SALINE 1/WK FOR 20 WK, Promoter: NONE USED) was 9/14 (64%), 3/7 (43%), 33%, not calculated, the “tumour outcome (control, treated, inhibition, significance)” value (Carcinogen: 1,2-DIMETHYLHYDRAZINE, 540-73-8, Dose [Inhibitor]: 0.75% IN DIET FOR LIFE BEGINNING AT 8 WK OF AGE (STUDY DURATION: 10 MO POST FIRST CARCINOGEN TREATMENT), Route [Inhibitor]: ORAL, Species: MOUSE, Strain/Sex: BALB/FEMALE, Target Tissue: Type of Lesion: LARGE INTESTINE: TUMOR, Dose [Carcinogen]: 20 MG/KG BW IN SALINE FOR 10 WK BEGINNING AT 11 WK OF AGE, Promoter: NONE USED) was 9/18 (50%), 15/25 (60%), -20%, not significant and the “tumour outcome (control, treated, inhibition, significance)” value (Carcinogen: 1,2-DIMETHYLHYDRAZINE, 540-73-8, Dose [Inhibitor]: 0.75% IN DIET FOR LIFE BEGINNING AT 8 WK OF AGE (STUDY DURATION: 10 MO POST FIRST CARCINOGEN TREATMENT), Route [Inhibitor]: ORAL, Species: MOUSE, Strain/Sex: BALB/MALE, Target Tissue: Type of Lesion: LARGE INTESTINE: TUMOR, Dose [Carcinogen]: 20 MG/KG BODY WEIGHT IN SALINE FOR 10 WK BEGINNING AT 11 WK OF AGE, Promoter: NONE USED) was 15/20 (75%), 12/35 (34%), 55%, p=0.0036. The “tumour outcome (control, treated, inhibition, significance)” value (Carcinogen: 2-ACETYLAMINOFLUORENE, 53-96-3, Dose [Inhibitor]: 0, 100 PPM IN DIET CONCURRENTLY WITH CARCINOGEN FOR STUDY DURATION (STUDY DURATION: 76 WK), Route [Inhibitor]: ORAL, Species: RAT, Strain/Sex: F344/MALE, Target Tissue: Type of Lesion: LIVER: HEPATOCELLULAR TUMOR, Dose [Carcinogen]: 50 PPM IN DIET FOR 76 WK) was 20/20 (100%), 18/18 (100%), 0%, not calculated, the “tumour outcome (control, treated, inhibition, significance)” value (Carcinogen: 2-ACETYLAMINOFLUORENE, 53-96-3, Dose [Inhibitor]: 0, 100 PPM IN SEMISYNTHETIC DIET CONCURRENTLY WITH CARCINOGEN FOR STUDY DURATION (STUDY DURATION: 76 WK), Route [Inhibitor]: ORAL, Species: RAT, Strain/Sex: F344/MALE, Target Tissue: Type of Lesion: BLADDER: CARCINOMA, Dose [Carcinogen]: 50 PPM IN DIET FOR 76 WK) was 1/17 (6%), 0/16 (0%), 100%, not calculated and the “tumour outcome (control, treated, inhibition, significance)” value (Carcinogen: 2-ACETYLAMINOFLUORENE, 53-96-3, Dose [Inhibitor]: 0, 100 PPM IN SEMISYNTHETIC DIET CONCURRENTLY WITH CARCINOGEN FOR STUDY DURATION (STUDY DURATION: 76 WK), Route [Inhibitor]: ORAL, Species: RAT, Strain/Sex: F344/MALE, Target Tissue: Type of Lesion: LIVER: HEPATOCELLULAR TUMORS, Dose [Carcinogen]: 50 PPM IN DIET FOR 76 WK) was 17/17 (100%), 16/16 (100%), 0%, not significant. For the same molecule, the outcome (Carcinogen: 2-ACETYLAMINOFLUORENE, 53-96-3, Dose [Inhibitor]: 0, 300 PPM IN DIET CONCURRENTLY WITH CARCINOGEN FOR STUDY DURATION (STUDY DURATION: 76 WK), Route [Inhibitor]: ORAL, Species: RAT, Strain/Sex: F344/MALE, Target Tissue: Type of Lesion: LIVER: ADENOMA, Dose [Carcinogen]: 50 PPM IN DIET FOR 76 WK) was 19.2, 13.4, 30%, p<0.05, the “tumour outcome (control, treated, inhibition, significance)” value (Carcinogen: 2-ACETYLAMINOFLUORENE, 53-96-3, Dose [Inhibitor]: 0, 300 PPM IN DIET CONCURRENTLY WITH CARCINOGEN FOR STUDY DURATION (STUDY DURATION: 76 WK), Route [Inhibitor]: ORAL, Species: RAT, Strain/Sex: F344/MALE, Target Tissue: Type of Lesion: LIVER: HEPATOCELLULAR TUMOR, Dose [Carcinogen]: 50 PPM IN DIET FOR 76 WK) was 20/20 (100%), 17/17 (100%), 0%, not calculated and the “tumour outcome (control, treated, inhibition, significance)” value (Carcinogen: 2-ACETYLAMINOFLUORENE, 53-96-3, Dose [Inhibitor]: 0, 1000 PPM IN DIET CONCURRENTLY WITH CARCINOGEN FOR STUDY DURATION (STUDY DURATION: 76 WK), Route [Inhibitor]: ORAL, Species: RAT, Strain/Sex: F344/MALE, Target Tissue: Type of Lesion: LIVER: HEPATOCELLULAR TUMOR, Dose [Carcinogen]: 50 PPM IN DIET FOR 76 WK) was 20/20 (100%), 19/19 (100%), 0%, not calculated.
